Measured values: ChEMBL document CHEMBL1126579, “6-Azasteroids: potent dual inhibitors of human type 1 and 2 steroid 5 alpha-reductase” (J Med Chem, 1993)

Experiments:
[1] = target: T1, 3-oxo-5-alpha-steroid 4-dehydrogenase 1 (Homo sapiens, UniProt P18405); test: Inhibition of recombinant human 5-alpha reductase-1 […] after pre-incubation for 10 minutes
T1 sequence (P18405 whole entry): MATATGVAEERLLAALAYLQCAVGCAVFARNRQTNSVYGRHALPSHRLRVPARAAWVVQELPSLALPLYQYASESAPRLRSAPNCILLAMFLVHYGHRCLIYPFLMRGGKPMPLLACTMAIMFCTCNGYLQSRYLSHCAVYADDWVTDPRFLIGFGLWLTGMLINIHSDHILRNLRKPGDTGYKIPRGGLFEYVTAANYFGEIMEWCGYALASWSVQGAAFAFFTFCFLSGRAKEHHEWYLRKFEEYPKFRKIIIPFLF

[2] = target: T2, 3-oxo-5-alpha-steroid 4-dehydrogenase 2 (Homo sapiens, UniProt P31213); test: Inhibition of recombinant human 5-alpha reductase-2 […] after pre-incubation for 10 minutes
T2 sequence (P31213 whole entry): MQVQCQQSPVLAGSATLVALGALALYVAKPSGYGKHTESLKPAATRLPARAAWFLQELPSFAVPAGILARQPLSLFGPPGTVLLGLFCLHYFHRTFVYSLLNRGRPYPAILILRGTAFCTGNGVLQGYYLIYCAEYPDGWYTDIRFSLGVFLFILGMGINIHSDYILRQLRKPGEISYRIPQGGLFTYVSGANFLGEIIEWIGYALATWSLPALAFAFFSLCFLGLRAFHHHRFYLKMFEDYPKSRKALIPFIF

Rattus norvegicus = test: In vivo evaluation in chronic castrated rat to inhibit T-stimulated prostate growth expressed as percentage reduction; assay type: functional, Prostate gland; parameters: concentration or dose not given beside the values
[3] = Half-life in dog; assay type: ADME, organism-based, Canis lupus familiaris; conditions: in vivo
[4] = Bioavailability after oral administration in dog; assay type: ADME, organism-based, Canis lupus familiaris; conditions: in vivo

Row | Ki [1] [nM] | IC50 [2] [nM] | half-life [3] [h] | bioavailability [4] [%] | Structure (SMILES) | Reduction (Rattus norvegicus) [%] | IC50 [1] [nM]
1 | 6000 | – | – | – | CC(C)NC(=O)[C@H]1CCC2C3CNC4=CC(=O)CC[C@]4(C)C3CC[C@@]21C (some centres undefined) | – | –
2 | 2200 | 7.1 | – | – | C[C@]12CCC(=O)C=C1NCC1C2CC[C@@]2(C)C1CC[C@@H]2C(=O)N1CCOCC1 (some centres undefined) | – | –
3 | > 5000 | 30 | – | – | CC(C)(C)NC(=O)[C@H]1CC[C@H]2[C@@H]3CC=C4C=C(C(=O)O)CC[C@]4(C)[C@H]3CC[C@]12C [EPRISTERIDE] | – | –
4 | 8600 | – | – | – | C[C@]12CCC(=O)C=C1NCC1C2CC[C@@]2(C)C1CC[C@@H]2C(=O)N1CCNCC1 (some centres undefined) | – | –
5 | 6.9 | 0.04 | – | – | C[C@]12CCC(=O)C=C1NCC1C2CC[C@@]2(C)C1CC[C@@H]2C(=O)C1[C@H]2C[C@@H]3C[C@@H](C[C@H]1C3)C2 (some centres undefined) | 26 | –
6 | 8.2 | 0.09 | – | – | C[C@]12CCC(=O)C=C1NCC1C2CC[C@@]2(C)C1CC[C@@H]2C(=O)NC(c1ccccc1)(c1ccccc1)c1ccccc1 (some centres undefined) | 4 | –
7 | 570 | – | – | – | C[C@]12CCC(=O)C=C1NCC1C2CC[C@@]2(C)C1CC[C@@H]2C(=O)N1CCSCC1 (some centres undefined) | – | –
8 | 20 | 0.12 | 12 | – | C[C@]12CCC(=O)C=C1NCC1C2CC[C@@]2(C)C1CC[C@@H]2C(=O)NC(c1ccc(Cl)cc1)c1ccc(Cl)cc1 (some centres undefined) | 31 | –
9 | 190 | 0.36 | – | – | CC(C)N(C(=O)[C@H]1CCC2C3CNC4=CC(=O)CC[C@]4(C)C3CC[C@@]21C)C(C)C (some centres undefined) | – | –
10 | 360 | – | – | – | C[C@]12CCC(=O)C=C1NCC1C2CC[C@@]2(C)C1CC[C@@H]2C(=O)NCc1ccccc1 (some centres undefined) | – | –
11 | 75 | – | – | – | C[C@]12CCC(=O)C=C1NCC1C2CC[C@@]2(C)C1CC[C@@H]2C(=O)N(Cc1ccccc1)Cc1ccccc1 (some centres undefined) | – | –
12 | 14 | 0.23 | – | – | C[C@]12CCC(=O)C=C1NCC1C2CC[C@@]2(C)C1CC[C@@H]2C(=O)NN(c1ccccc1)c1ccccc1 (some centres undefined) | 38 | –
13 | 30 | 0.09 | – | 80 | C[C@]12CCC(=O)C=C1NCC1C2CC[C@@]2(C)C1CC[C@@H]2C(=O)NC(c1ccccc1)c1ccccc1 (some centres undefined) | 43 | –
14 | 820 | – | – | – | CC(C)(C)NC(=O)[C@H]1CCC2C3CNC4=CC(=O)CC[C@]4(C)C3CC[C@@]21C (some centres undefined) | – | –
15 | 9 | 0.08 | – | – | CC(C)CC(=O)[C@H]1CCC2C3CNC4=CC(=O)CC[C@]4(C)C3CC[C@@]21C (some centres undefined) | 18 | –
16 | 2300 | 2.4 | – | – | CON(C)C(=O)[C@H]1CCC2C3CNC4=CC(=O)CC[C@]4(C)C3CC[C@@]21C (some centres undefined) | – | –
17 | 150 | – | – | – | COC(=O)[C@H]1CCC2C3CNC4=CC(=O)CC[C@]4(C)C3CC[C@@]21C (some centres undefined) | – | –
18 | 720 | 2.8 | – | – | CCN(C)C(=O)[C@H]1CCC2C3CNC4=CC(=O)CC[C@]4(C)C3CC[C@@]21C (some centres undefined) | – | –
19 | 750 | 1.5 | – | – | CCN(CC)C(=O)[C@H]1CCC2C3CNC4=CC(=O)CC[C@]4(C)C3CC[C@@]21C (some centres undefined) | – | –
20 | 20 | 0.4 | – | – | C[C@]12CCC(=O)C=C1NCC1C2CC[C@@]2(C)C1CC[C@@H]2C(=O)NC(C1CCCCC1)C1CCCCC1 (some centres undefined) | 14 | –
21 | 11 | – | – | – | C[C@]12CCC(=O)C=C1NCC1C2CC[C@@]2(C)C1CC[C@@H]2C(=O)NC12C[C@H]3C[C@@H](C1)C[C@@H](C2)C3 (some centres undefined) | 18 | –
22 | 20 | – | – | – | C[C@]12CCC(=O)C=C1NCC1C2CC[C@@]2(C)C1CC[C@@H]2C(=O)NC(c1ccc(F)cc1)c1ccc(F)cc1 (some centres undefined) | 43 | –

Row | Structure (SMILES) | Ki [1] [nM] | IC50 [2] [nM] | half-life [3] [h] | bioavailability [4] [%] | Reduction (Rattus norvegicus) [%] | IC50 [1] [nM]
23 | CC(C)(C)NC(=O)[C@H]1CC[C@H]2[C@@H]3CC[C@H]4NC(=O)C=C[C@]4(C)[C@H]3CC[C@]12C [FINASTERIDE] | – | 0.18 | – | – | 41 | 150
